pIC50: −log10 of the molar value.

Series [1] concerns the target T1, human NK2R (Homo sapiens, UniProt P21452).
T1 construct: expressed in transfected cells; host or cells: CHO cells
T1 sequence (P21452 1-398): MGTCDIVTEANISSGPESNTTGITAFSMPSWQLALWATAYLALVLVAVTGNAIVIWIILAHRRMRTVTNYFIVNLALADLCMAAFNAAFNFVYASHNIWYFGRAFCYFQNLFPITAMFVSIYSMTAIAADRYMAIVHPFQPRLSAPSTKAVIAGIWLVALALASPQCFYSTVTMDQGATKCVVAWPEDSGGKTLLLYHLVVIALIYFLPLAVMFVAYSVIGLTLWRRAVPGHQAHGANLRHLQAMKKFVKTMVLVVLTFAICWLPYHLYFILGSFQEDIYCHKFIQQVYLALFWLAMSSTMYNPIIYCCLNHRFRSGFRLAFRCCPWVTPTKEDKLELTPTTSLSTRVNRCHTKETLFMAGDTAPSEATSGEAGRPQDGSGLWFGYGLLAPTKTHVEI
Description: Effect on activity of tachykinin receptor type 2 (intracellular calcium, fluorescence). The class given is cell-based. The settings on record: CHO cells expressing human NK2R, agonist [Nleu10]-NKA-(4-10) 10 nM, read-out: IC50, antagonist of tachykinin receptor type 2. The protocol: Compound I was dissolved in DMSO to a concentration of 100 mM; then the stock solution was serially diluted with DMSO. The maximal start concentration of substance is […]. The effect was determined at 8 concentrations of test compound, each concentration was investigated twice. CHO cells expressing human NK2R were used in the experiment, said cells after the preincubation with an agonist [Nleu10]-NKA-(4-10) (10 nM) were incubated with the test compound. The activity of receptors was determined by the intracellular calcium concentration using fluorescence spectroscopy (Biochem Biophys Res Commun. 1994 May 16; 200(3):1512-20).
Background: Calcium assays in cells follow changes in intracellular calcium, usually with a dye or a luminescent sensor.

Series [2] deals with guinea pigs of Agouti line. Description: Citrate cough model in guinea pigs, inhalation administration. The settings on record: 0.25 mg/kg by inhalation 15 minutes prior to citric acid. The class given is in vivo.
Series [3] addresses T2, TRPV1 ion channel (Homo sapiens, UniProt Q8NER1).
T2 construct: expressed in transfected cells; host or cells: CHO cells
As to the kind of experiment: Effect on activity of TRPV1 ion channel (Fluo-4 AM calcium). The format is cell-based. The settings on record: TRPV1 expressing CHO cells; Capsaicin 30 nM; intracellular calcium; read-out: IC50, blocker of TRPV1 ion channel. The protocol:
Compound I was dissolved in DMSO to a concentration of 100 mM; then the stock solution was serially diluted with DMSO to prepare a test solution with the concentration of substance equal to 50 μM. TRPV1 expressing CHO cells were used in the experiment. At the day of the experiment, the cells were incubated with a 4 μM of a solution of fluorescent indicator Fluo-4 AM. The cells after the preincubation with Capsaicin (30 nM), the known agonist of […] ion channel, were incubated with the test compound. The activity of receptors was determined by the intracellular calcium concentration using fluorescence spectroscopy (Behrendt, H. J. et al. (2004), Br. J. Pharmacol., 141: 737-745. FINAL).

Series [4] deals with rats. As to the kind of experiment: Stress-induced defecation model in rats. The settings on record: 40 minutes restraint, control 2.65 ± 0.35, intact 0.24 ± 0.05. The format is in vivo. The protocol:
The study of the activity of Compound I in the stress-induced defecation model was carried out by a standard procedure (Taguchi R., Shikata K., Furuya Y, Hirakawa T., Ino M., Shin K., Shibata H. Selective corticotropin-releasing factor 1 receptor antagonist E2508 reduces restraint stress-induced defecation and visceral pain in rat models//Psychoneuroendocrinology. 2017. P. 110-115).
Rats were adapted to a room in which the experiment was conducted for 24 hours. The study was carried out on satisfied rats. Compound I was administered once, intragastrically. After 1 hour, the rat was placed in the cloth so that the front paws were pressed to the body. In such a form, the rat was placed into the individual cage on the gating and was left for 40 minutes. Summarily the whole of excrement released during the observation period of 40 minutes then was weighed.
For all data, descriptive statistics is applied: the arithmetic mean (M) and the standard error of the mean (m) are counted up. The normality of distribution of the values obtained in the course of the experiment was checked with the aid of the Shapiro-Wilk test. In the case of normal distribution, 1-way ANOVA (with […] post hoc test) was used to evaluate the inter-group distinctions. In the case of the distribution that is other than normal one, the […] was used for the comparison of several groups.

Series [5] has as its system male and female mice. Description: Acute toxicity at single administration, mice. The format is in vivo. The settings on record: for Body weight gain / Death of animals: male and female; for Death of animals: 14 days observation. The protocol: (§1) The acute toxicity study was performed on 24 male and 24 female rats, and also on 24 male and 24 female mice. Before the administration of the Compound I, the body weight of the animals was recorded, after 1 hour of the administration, the state of the experimental animals was observed. Then, the body weights of rats and mice were recorded daily for 14 days after the administration of the substance, and the examination was carried out to detect the cases of death and abnormality in the state of the animals.
(§2) Compound I was administered to rats and mice intragastrically at a dose of 5000 mg/kg, intraperitoneally—at a dose of 2000 mg/kg. Control groups (female and male objects) were received a solvent (0.1% Tween-80 solution in water).

Series [6] deals with T3, human NK1R (Homo sapiens, UniProt P25103).
T3 construct: U373 cells expressing human NK1R were used in the experiment; endogenous in cells; host or cells: U373 cells
T3 sequence (P25103 whole entry): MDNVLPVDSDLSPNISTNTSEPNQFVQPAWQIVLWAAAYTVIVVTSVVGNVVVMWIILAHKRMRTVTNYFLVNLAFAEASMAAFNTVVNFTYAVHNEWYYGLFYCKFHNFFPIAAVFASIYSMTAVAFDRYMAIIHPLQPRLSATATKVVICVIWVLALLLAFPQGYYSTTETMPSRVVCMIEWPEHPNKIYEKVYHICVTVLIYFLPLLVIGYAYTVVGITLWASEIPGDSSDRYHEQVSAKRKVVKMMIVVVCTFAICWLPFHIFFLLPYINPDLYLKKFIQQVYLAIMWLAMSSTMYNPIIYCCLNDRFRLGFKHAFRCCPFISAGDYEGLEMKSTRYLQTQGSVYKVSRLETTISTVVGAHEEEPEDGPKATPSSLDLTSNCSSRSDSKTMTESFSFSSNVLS
Description: Effect on activity of tachykinin receptor type 1 (intracellular calcium, fluorescence). The class given is cell-based. The conditions noted are these: U373 cells expressing human NK1R, agonist [Sar9,Met(O2)11]-SP 1 nM, read-out: IC50, antagonist of tachykinin receptor type 1. The protocol: Compound I was dissolved in DMSO to a concentration of 100 mM; then the stock solution was serially diluted with DMSO. The maximal start concentration of substance is 100 μM. The effect was determined at 8 concentrations of test compound, each concentration was investigated twice. U373 cells expressing human NK1R were used in the experiment, said cells after the preincubation with an agonist [Sar9,Met(O2)11]-SP (1 nM) were incubated with Compound I. The activity of receptors was determined by the intracellular calcium concentration using fluorescence spectroscopy (Glia. 1992; 6(2):89-95).

Series [7] concerns the target recombinant human delta opioid receptor (Homo sapiens, UniProt P41143). Description: Delta-opioid receptor radioligand displacement ([3H]DADLE). The class given is binding. (In general: In a radioligand displacement assay an active substance lowers the binding of a labelled ligand.)
Series [8] concerns male and female rats. As to the kind of experiment: Acute toxicity at single administration, rats. The format is in vivo. The conditions noted are these: for Body weight gain / Death of animals: male and female; for Death of animals: 14 days observation. The protocol: as §1, §2
Where [9] appears, read: intragastrically 5000 mg/kg, intraperitoneally 2000 mg/kg.

Sequence of recombinant human delta opioid receptor (P41143 whole entry): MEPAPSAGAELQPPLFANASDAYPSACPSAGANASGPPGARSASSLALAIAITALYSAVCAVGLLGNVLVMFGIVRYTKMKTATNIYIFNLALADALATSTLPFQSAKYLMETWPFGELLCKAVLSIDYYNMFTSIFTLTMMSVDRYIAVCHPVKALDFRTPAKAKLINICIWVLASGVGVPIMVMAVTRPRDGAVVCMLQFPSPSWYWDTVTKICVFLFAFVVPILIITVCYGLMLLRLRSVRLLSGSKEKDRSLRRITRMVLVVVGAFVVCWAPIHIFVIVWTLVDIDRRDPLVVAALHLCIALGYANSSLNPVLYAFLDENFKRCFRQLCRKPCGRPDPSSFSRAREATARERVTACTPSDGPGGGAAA
T2 sequence (Q8NER1 whole entry): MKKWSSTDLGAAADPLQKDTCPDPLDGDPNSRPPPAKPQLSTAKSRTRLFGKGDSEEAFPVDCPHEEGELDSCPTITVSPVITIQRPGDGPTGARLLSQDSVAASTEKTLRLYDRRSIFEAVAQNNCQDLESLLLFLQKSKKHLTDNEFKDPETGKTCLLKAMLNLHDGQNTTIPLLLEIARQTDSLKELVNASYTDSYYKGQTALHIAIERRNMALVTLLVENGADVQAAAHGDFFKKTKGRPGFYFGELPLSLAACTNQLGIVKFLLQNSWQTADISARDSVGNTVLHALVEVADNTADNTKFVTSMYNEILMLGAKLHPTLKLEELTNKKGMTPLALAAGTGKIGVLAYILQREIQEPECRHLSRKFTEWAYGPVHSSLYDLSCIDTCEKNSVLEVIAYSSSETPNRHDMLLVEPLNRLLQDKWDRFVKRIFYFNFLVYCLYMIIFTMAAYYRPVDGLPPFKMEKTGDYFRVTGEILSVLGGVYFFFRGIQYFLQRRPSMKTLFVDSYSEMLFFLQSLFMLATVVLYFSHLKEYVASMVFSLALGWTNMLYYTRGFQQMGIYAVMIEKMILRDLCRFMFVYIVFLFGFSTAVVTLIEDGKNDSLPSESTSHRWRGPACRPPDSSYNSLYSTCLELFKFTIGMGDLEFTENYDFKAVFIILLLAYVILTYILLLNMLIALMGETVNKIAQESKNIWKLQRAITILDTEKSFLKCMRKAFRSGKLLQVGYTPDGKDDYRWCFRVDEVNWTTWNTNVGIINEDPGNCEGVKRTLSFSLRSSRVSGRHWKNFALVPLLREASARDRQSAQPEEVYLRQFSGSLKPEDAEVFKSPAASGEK

`O=C(Cc1ccc(O)cc1)N[C@@H](Cc1ccccc1)C(=O)NCCc1ccccc1` [Compound I, 2-phenylethylamide N-(p-hydroxyphenylacetyl)phenylalanine]: the pIC50 is 5.19 in series [1], 4.29 in series [3], 4.23 in series [6] and 4.19 in series [7]. The “Suppression of cough (% from the control of pathology) in the chamber” value in series [2] came out at 39.1%. Further, the “A number of cough attacks during the inhalation for 10 minutes” value in series [2] (control 48.8 ± 4) was 29.7 ± 2.7*&. In addition, the Weight of excrement in series [4] (0.3 mg/kg once intragastrically) was 2.35 ± 0.35 g; in series [4] (1 mg/kg once intragastrically) it was 1.43 ± 0.12 g; in series [4] (3 mg/kg once intragastrically) it was 1.00 ± 0.06& g. Also, the “Differences in the spontaneous behaviour, responses to the caused reactions” value in series [5] (setting [9]) and in series [8] (setting [9]) was “not observed” each time. The Body weight gain entry in series [5] (intragastrically 5000 mg/kg), in series [5] (intraperitoneally 2000 mg/kg), in series [8] (intragastrically 5000 mg/kg) and in series [8] (intraperitoneally 2000 mg/kg) was “lag in body weight gain” in each case. The Death of animals entry in series [5] (intragastrically 5000 mg/kg), in series [5] (intraperitoneally 2000 mg/kg), in series [8] (intragastrically 5000 mg/kg) and in series [8] (intraperitoneally 2000 mg/kg) was “did not cause death of animals” in each case.

In general, pIC50 refers to the IC50 on a negative log10 scale, so that one unit is a factor of ten.

The record behind these values is patent publication US11414377B2, “Modulator of metabotropic and ionotropic transmembrane receptors and use thereof” (IBD THERAPEUTICS LLC, priority 2018, dated 2022).
